The conditions of series [1]: 1.0% DMSO, 24-hour incubation at ambient temperature, maximum theoretical 100 μM; for pH 2 solubility: 0.1N HCl, first value of the cell; for pH 7 solubility: 1×PBS buffer (pH 7.4), second value of the cell.
Series [2] is described as follows: Solubility in simulated intestinal fluids (FaSSIF/FeSSIF). The conditions noted are these: 25 °C, thermodynamic from solid.
[3] abbreviates: fasted state simulated intestinal fluid (FaSSIF), fassif.
Setting [4] is: fed state simulated intestinal fluid (FeSSIF), fessif.

Values after ≈ are worked out from the molar mass of the structure shown.

The term solubility denotes how much of the substance goes into solution per volume.

Regarding `CC(C)(C#Cc1ccc(-c2ccc(Cl)c3c(N(C(=O)N(CCNC(=O)OCOP(=O)(O)O)CCC(=O)O)S(C)(=O)=O)nn(CC(F)(F)F)c23)c([C@H](Cc2cc(F)cc(F)c2)NC(=O)Cn2nc(C(F)(F)F)c3c2C(F)(F)[C@@H]2C[C@H]32)n1)S(C)(=O)=O` [Compound 80, 3-(3-(4-chloro-7-(2-((S)-1-(2-((3bS,4aR)-5,5-difluoro-3-(trifluoromethyl)-3b,4,4a,5-tetrahydro-1H-cyclopropa[3,4]cyclopenta[1,2-c]pyrazol-1-yl)acetamido)-2-(3,5-difluorophenyl)ethyl)-6-(3-methyl-3-(methylsulfonyl)but-1-yn-1-yl)pyridin-3-yl)-1-(2,2,2-trifluoroethyl)-1H-indazol-3-yl)-3-(methylsulfonyl)-1-(2-((((phosphonooxy)methoxy)carbonyl)amino)ethyl)ureido)propanoic acid], in series [1], the “pH 2 solubility” value is 6 μM and the “pH 7 solubility” value came out at 100 μM. In series [2] (setting [3]), this compound yielded a solubility of 7550 µg/mL (≈ 5900 µM). This compound also had a solubility in series [2] (setting [4]) of 1720 µg/mL (≈ 1350 µM).
Regarding `CC(C)(C#Cc1ccc(-c2ccc(Cl)c3c(N(C(=O)N[C@@H](COP(=O)(O)O)C(=O)O)S(C)(=O)=O)nn(CC(F)(F)F)c23)c([C@H](Cc2cc(F)cc(F)c2)NC(=O)Cn2nc(C(F)(F)F)c3c2C(F)(F)[C@@H]2C[C@H]32)n1)S(C)(=O)=O` [Compound 59, N-((4-chloro-7-(2-((S)-1-(2-((3bS,4aR)-5,5-difluoro-3-(trifluoromethyl)-3b,4,4a,5-tetrahydro-1H-cyclopropa[3,4]cyclopenta[1,2-c]pyrazol-1-yl)acetamido)-2-(3,5-difluorophenyl)ethyl)-6-(3-methyl-3-(methylsulfonyl)but-1-yn-1-yl)pyridin-3-yl)-1-(2,2,2-trifluoroethyl)-1H-indazol-3-yl)(methylsulfonyl)carbamoyl)-O-phosphono-L-serine], in series [1], the “pH 2 solubility” value came out at 2 μM and the “pH 7 solubility” value amounted to 21 μM. Moreover, the concentration in solution in series [2] (setting [3]) (solubility) came to 798 µg/mL (≈ 677 µM). Moreover, the concentration in solution in series [2] (setting [4]) (solubility) was 819 µg/mL (≈ 694 µM).
In the case of `CN(CCCC(=O)O)C(=O)N(c1nn(CC(F)(F)F)c2c(-c3ccc(C#CC(C)(C)S(C)(=O)=O)nc3[C@H](Cc3cc(F)cc(F)c3)NC(=O)Cn3nc(C(F)(F)F)c4c3C(F)(F)[C@@H]3C[C@H]43)ccc(Cl)c12)S(C)(=O)=O` [Compound 46, 4-(3-(4-chloro-7-(2-((S)-1-(2-((3bS,4aR)-5,5-difluoro-3-(trifluoromethyl)-3b,4,4a,5-tetrahydro-1H-cyclopropa[3,4]cyclopenta[1,2-c]pyrazol-1-yl)acetamido)-2-(3,5-difluorophenyl)ethyl)-6-(3-methyl-3-(methylsulfonyl)but-1-yn-1-yl)pyridin-3-yl)-1-(2,2,2-trifluoroethyl)-1H-indazol-3-yl)-1-methyl-3-(methylsulfonyl)ureido)butanoic acid], in series [1], the “pH 2 solubility” value is 1 μM. For the same compound, in series [1], the “pH 7 solubility” value stood at 10 μM. The values for the solubility in series [2] (setting [3]) and in series [2] (setting [4]) were 9 µg/mL (≈ 8.1 µM) and 3 µg/mL (≈ 2.7 µM), respectively.
On to `CC(C)(C#Cc1ccc(-c2ccc(Cl)c3c(N(C(=O)C(=O)O)S(C)(=O)=O)nn(CC(F)(F)F)c23)c([C@H](Cc2cc(F)cc(F)c2)NC(=O)Cn2nc(C(F)(F)F)c3c2C(F)(F)[C@@H]2C[C@H]32)n1)S(C)(=O)=O` [Compound 16], for which the “pH 2 solubility” value in series [1] is 1 μM. In series [1], the “pH 7 solubility” value came to 92 μM. Also, the solubility was 710 µg/mL (≈ 682 µM) in series [2] (setting [3]) and 497 µg/mL (≈ 478 µM) in series [2] (setting [4]).
On to `CC(C)(C#Cc1ccc(-c2ccc(Cl)c3c(N(C(=O)N[C@](C)(CO)CC(=O)O)S(C)(=O)=O)nn(CC(F)(F)F)c23)c([C@H](Cc2cc(F)cc(F)c2)NC(=O)Cn2nc(C(F)(F)F)c3c2C(F)(F)[C@@H]2C[C@H]32)n1)S(C)(=O)=O` [Compound 66, (S)-3-(3-(4-chloro-7-(2-((S)-1-(2-((3bS,4aR)-5,5-difluoro-3-(trifluoromethyl)-3b,4,4a,5-tetrahydro-1H-cyclopropa[3,4]cyclopenta[1,2-c]pyrazol-1-yl)acetamido)-2-(3,5-difluorophenyl)ethyl)-6-(3-methyl-3-(methylsulfonyl)but-1-yn-1-yl)pyridin-3-yl)-1-(2,2,2-trifluoroethyl)-1H-indazol-3-yl)-3-(methylsulfonyl)ureido)-4-hydroxy-3-methylbutanoic acid], for which, in series [1], the “pH 2 solubility” value turned out to be 1 μM and the “pH 7 solubility” value stood at 10 μM. This compound had a solubility in series [2] (setting [3]) of 425 µg/mL (≈ 377 µM). The compound also displayed a solubility in series [2] (setting [4]) of 140 µg/mL (≈ 124 µM).
The like results for `CC(C)(C#Cc1ccc(-c2ccc(Cl)c3c(N(C(=O)OCC(=O)OCOP(=O)(O)O)S(C)(=O)=O)nn(CC(F)(F)F)c23)c([C@H](Cc2cc(F)cc(F)c2)NC(=O)Cn2nc(C(F)(F)F)c3c2C(F)(F)[C@@H]2C[C@H]32)n1)S(C)(=O)=O` [Compound 94, (phosphonooxy)methyl 2-(((4-chloro-7-(2-((S)-1-(2-((3bS,4aR)-5,5-difluoro-3-(trifluoromethyl)-3b,4,4a,5-tetrahydro-1H-cyclopropa[3,4]cyclopenta[1,2-c]pyrazol-1-yl)acetamido)-2-(3,5-difluorophenyl)ethyl)-6-(3-methyl-3-(methylsulfonyl)but-1-yn-1-yl)pyridin-3-yl)-1-(2,2,2-trifluoroethyl)-1H-indazol-3-yl)(methylsulfonyl)carbamoyl)oxy)acetate] were, in that order, <1/1 μM, <1/1 μM, 481 µg/mL (≈ 408 µM) and 189 µg/mL (≈ 160 µM).
For the compound `CC(C)(C#Cc1ccc(-c2ccc(Cl)c3c(N(C(=O)OCCCC(=O)O)S(C)(=O)=O)nn(CC(F)(F)F)c23)c([C@H](Cc2cc(F)cc(F)c2)NC(=O)Cn2nc(C(F)(F)F)c3c2C(F)(F)[C@@H]2C[C@H]32)n1)S(C)(=O)=O` [Compound 113], in series [1], the “pH 2 solubility” value turned out to be 1 μM and the “pH 7 solubility” value was 5 μM. This compound also came in with a solubility in series [2] (setting [3]) of 5 µg/mL (≈ 4.55 µM). In series [2] (setting [4]), this compound came in with a solubility of 8 µg/mL (≈ 7.28 µM).
Consider `CC(C)(C#Cc1ccc(-c2ccc(Cl)c3c(N(C(=O)N(CCCC(=O)O)CCNC(=O)OCOP(=O)(O)O)S(C)(=O)=O)nn(CC(F)(F)F)c23)c([C@H](Cc2cc(F)cc(F)c2)NC(=O)Cn2nc(C(F)(F)F)c3c2C(F)(F)[C@@H]2C[C@H]32)n1)S(C)(=O)=O` [Compound 82], for which, in series [1], the “pH 2 solubility” value is given as 2 μM and the “pH 7 solubility” value was determined as 100 μM. For the same compound, the concentration in solution in series [2] (setting [3]) (solubility) came to 2680 µg/mL (≈ 2070 µM). This compound came in with a solubility in series [2] (setting [4]) of 1800 µg/mL (≈ 1390 µM).
With `CN(CC(=O)O)C(=O)N(c1nn(CC(F)(F)F)c2c(-c3ccc(C#CC(C)(C)S(C)(=O)=O)nc3[C@H](Cc3cc(F)cc(F)c3)NC(=O)Cn3nc(C(F)(F)F)c4c3C(F)(F)[C@@H]3C[C@H]43)ccc(Cl)c12)S(C)(=O)=O` [Compound 44, N-((4-chloro-7-(2-((S)-1-(2-((3bS,4aR)-5,5-difluoro-3-(trifluoromethyl)-3b,4,4a,5-tetrahydro-1H-cyclopropa[3,4]cyclopenta[1,2-c]pyrazol-1-yl)acetamido)-2-(3,5-difluorophenyl)ethyl)-6-(3-methyl-3-(methylsulfonyl)but-1-yn-1-yl)pyridin-3-yl)-1-(2,2,2-trifluoroethyl)-1H-indazol-3-yl)(methylsulfonyl)carbamoyl)-N-methylglycine], in series [1], the “pH 2 solubility” value was found to be 1 μM and the “pH 7 solubility” value is 9 μM. For the same compound, in series [2] (setting [3]), the concentration in solution (solubility) was 10 µg/mL (≈ 9.23 µM). This compound also came in with a solubility in series [2] (setting [4]) of 10 µg/mL (≈ 9.23 µM).
With `CC(C)(C#Cc1ccc(-c2ccc(Cl)c3c(N(C(=O)NC(CP(=O)(O)O)C(=O)O)S(C)(=O)=O)nn(CC(F)(F)F)c23)c([C@H](Cc2cc(F)cc(F)c2)NC(=O)Cn2nc(C(F)(F)F)c3c2C(F)(F)[C@@H]2C[C@H]32)n1)S(C)(=O)=O` (stereo partly drawn) [Compound 56, 2-(3-(4-chloro-7-(2-((S)-1-(2-((3bS,4aR)-5,5-difluoro-3-(trifluoromethyl)-3b,4,4a,5-tetrahydro-1H-cyclopropa[3,4]cyclopenta[1,2-c]pyrazol-1-yl)acetamido)-2-(3,5-difluorophenyl)ethyl)-6-(3-methyl-3-(methylsulfonyl)but-1-yn-1-yl)pyridin-3-yl)-1-(2,2,2-trifluoroethyl)-1H-indazol-3-yl)-3-(methylsulfonyl)ureido)-3-phosphonopropanoic acid], in series [1], the “pH 2 solubility” value is listed as 3 μM and the “pH 7 solubility” value is 42 μM. The solubility in series [2] (setting [3]) is 1080 µg/mL (≈ 930 µM). In series [2] (setting [4]), the solubility is 1590 µg/mL (≈ 1370 µM).
On to `CC(C)(C#Cc1ccc(-c2ccc(Cl)c3c(N(C(=O)N[C@@H](COC(=O)C(=O)O)C(=O)O)S(C)(=O)=O)nn(CC(F)(F)F)c23)c([C@H](Cc2cc(F)cc(F)c2)NC(=O)Cn2nc(C(F)(F)F)c3c2C(F)(F)[C@@H]2C[C@H]32)n1)S(C)(=O)=O` [Compound 60, O-(carboxycarbonyl)-N-((4-chloro-7-(2-((S)-1-(2-((3bS,4aR)-5,5-difluoro-3-(trifluoromethyl)-3b,4,4a,5-tetrahydro-1H-cyclopropa[3,4]cyclopenta[1,2-c]pyrazol-1-yl)acetamido)-2-(3,5-difluorophenyl)ethyl)-6-(3-methyl-3-(methylsulfonyl)but-1-yn-1-yl)pyridin-3-yl)-1-(2,2,2-trifluoroethyl)-1H-indazol-3-yl)(methylsulfonyl)carbamoyl)-L-serine], for which, in series [1], the “pH 2 solubility” value amounted to 1 μM and the “pH 7 solubility” value was 14 μM. Moreover, the solubility in series [2] (setting [3]) is 364 µg/mL (≈ 311 µM). This compound showed a solubility in series [2] (setting [4]) of 756 µg/mL (≈ 645 µM).
On to `CC(C)(C#Cc1ccc(-c2ccc(Cl)c3c(N(C(=O)NC(C(=O)O)C(=O)O)S(C)(=O)=O)nn(CC(F)(F)F)c23)c([C@H](Cc2cc(F)cc(F)c2)NC(=O)Cn2nc(C(F)(F)F)c3c2C(F)(F)[C@@H]2C[C@H]32)n1)S(C)(=O)=O` [Compound 53, 2-(3-(4-chloro-7-(2-((S)-1-(2-((3bS,4aR)-5,5-difluoro-3-(trifluoromethyl)-3b,4,4a,5-tetrahydro-1H-cyclopropa[3,4]cyclopenta[1,2-c]pyrazol-1-yl)acetamido)-2-(3,5-difluorophenyl)ethyl)-6-(3-methyl-3-(methylsulfonyl)but-1-yn-1-yl)pyridin-3-yl)-1-(2,2,2-trifluoroethyl)-1H-indazol-3-yl)-3-(methylsulfonyl)ureido)malonic acid], for which, in series [1], the “pH 2 solubility” value was 1 μM and the “pH 7 solubility” value was determined as 62 μM. In series [2] (setting [3]), this compound had a solubility of 758 µg/mL (≈ 681 µM). The amount in solution in series [2] (setting [4]) (solubility) came to 370 µg/mL (≈ 332 µM).

These data come from patent publication US12404262B2 (priority 2021, dated 2025).
